# Laboratory results published in paper PMC6213309, “Antibacterial Activity and Mechanism of Action of Bovine Lactoferricin Derivatives with Symmetrical Amino Acid Sequences” (International Journal of Molecular Sciences, 2018).
# Where two headings read alike, the source gives them in different places. Ends that are not written are not given here.
# What was measured:
# [1] = test system: Salmonella pullorum C 7913; format: cell-based; details: 18 h
# S. aureus ATCC 29213 = format: cell-based
# E. coli ATCC25922 = details: for MIC after Trypsin: peptide treated with 1 mg/mL trypsin
# Procedure: (§1) The antimicrobial activity of the peptides were defined as the minimum inhibitory concentrations (MIC) according to the Clinical and Laboratory Standards Institute broth microdilution method as described previously. Briefly, 50 μL two-fold serial dilutions of peptides (with final concentrations ranging from 0 μM to 256 μM) and 50 μL bacterial fluids diluted with MHB were added to 96-well microtiter plates. The plates were then incubated at 37 °C for 18 h.
# We assessed the salt stability, thermal stability, and enzymatic stability of the AMPs. Briefly, E. coli ATCC25922 was selected as the test bacterium. The control group was untreated peptides. Different concentrations of salts (150 mM NaCl, 4.5 mM KCl, 6 μM NH4Cl, 1 mM MgCl2, […], 8 mM […], 2.5 mM CaCl2, and 4 mM FeCl3) were added to the incubation buffer to examine the effect of each salt on the antimicrobial activities of the peptides. AMPs were treated for 1 h at 100 °C to test the thermal stability. AMPs were also treated with trypsin, pepsin, papain, and protease K at a concentration of 1 mg/mL for 1 h at 37 °C to test enzyme stability.
# S. aureus ATCC 25923 = format: cell-based
# [2] = test system: S. epidermidis ATCC 12228; format: cell-based
# Procedure: (§2) The antimicrobial activity of the peptides were defined as the minimum inhibitory concentrations (MIC) according to the Clinical and Laboratory Standards Institute broth microdilution method as described previously [47]. Briefly, 50 μL two-fold serial dilutions of peptides (with final concentrations ranging from 0 μM to 256 μM) and 50 μL bacterial fluids diluted with MHB were added to 96-well microtiter plates. The plates were then incubated at 37 °C for 18 h.
# E. coli UB 1005 = format: cell-based
# Procedure: as §2
# [3] = test system: Salmonella typhimurium ATCC 14028; format: cell-based
# Procedure: as §2
# [4] = test system: Salmonella typhimurium C 7731; format: cell-based
# Procedure: as §2
# E. coli ATCC 25922 = format: cell-based
# Procedure: as §2
# [5] = test system: Salmonella enterica subsp. CMCC 50071; details: MHB, 37 °C, 18 h, peptides 0-256 μM, triplicate samples
# Procedure: as §1
# [6] = test system: human red blood cells (hRBCs); experiment: Hemolytic activity; format: cell-based; details: lowest concentration causing 5% hemolysis of hRBCs; 1% hRBCs in PBS pH 7.2, 37 °C, 1 h, absorbance 570 nm
# Procedure: Hemolytic activity against human red blood cells (hRBCs) was determined as described before. Briefly, 1 mL of fresh hRBCs was centrifuged in PBS (pH 7.2). After washing two times, the hRBCs were resuspended with PBS at a concentration of 1%. Next, 50 μL of the hRBCs solution was added to 50 μL PBS containing two-fold serial dilutions of peptides in each well. The plates were then incubated at 37 °C for 1 h and centrifuged at 1000× g for 5 min. The supernatants were removed, and the release of hemoglobin was determined by measuring the absorbance at 570 nm using a microplate reader (Bio-Rad, Hercules CA, USA). Erythrocyte suspensions in PBS and 0.1% Triton X-100 were used as negative and positive controls, respectively. Melittin was the control peptide.
# [7] = Salmonella pullorum C 7913, MHB, 37 °C, peptides 0-256 μM, triplicate samples
# [8] = S. aureus ATCC 29213, MHB, 37 °C, 18 h, peptides 0-256 μM, triplicate samples
# [9] = E. coli ATCC25922, peptide treated 1 h at 100 °C
# [10] = E. coli ATCC25922, peptide treated with 1 mg/mL papain, 1 h, 37 °C
# [11] = E. coli ATCC25922, peptide treated with 1 mg/mL pepsin, 1 h, 37 °C
# [12] = E. coli ATCC25922, peptide treated with 1 mg/mL protease K, 1 h, 37 °C
# [13] = S. aureus ATCC 25923, MHB, 37 °C, 18 h, peptides 0-256 μM, triplicate samples
# [14] = S. epidermidis ATCC 12228, MHB, 37 °C, 18 h, peptides 0-256 μM, triplicate samples
# [15] = Salmonella typhimurium ATCC 14028, MHB, 37 °C, 18 h, peptides 0-256 μM, triplicate samples
# [16] = Salmonella typhimurium C 7731, MHB, 37 °C, 18 h, peptides 0-256 μM, triplicate samples
# [17] = E. coli ATCC25922, untreated peptides
Substance,"MIC [1, 7] [µM]",MIC (S. aureus ATCC 29213; [8]) [µM],"MIC in the presence of Ca2+ (E. coli ATCC25922; ATCC25922, 18 h) [µM]","MIC in the presence of Fe3+ (E. coli ATCC25922; ATCC25922, 18 h) [µM]","MIC in the presence of K+ (E. coli ATCC25922; ATCC25922, 18 h) [µM]","MIC in the presence of Mg2+ (E. coli ATCC25922; ATCC25922, 18 h) [µM]","MIC in the presence of NH4+ (E. coli ATCC25922; ATCC25922, 18 h) [µM]","MIC in the presence of Na+ (E. coli ATCC25922; ATCC25922, 18 h) [µM]","MIC in the presence of Zn2+ (E. coli ATCC25922; ATCC25922, 18 h) [µM]","MIC, Control (enzymatic stability) (E. coli ATCC25922; ATCC25922, 18 h) [µM]","MIC, Control (salt stability) (E. coli ATCC25922; ATCC25922, 18 h) [µM]","MIC, Control (thermal stability) (E. coli ATCC25922; ATCC25922, 18 h) [µM]",MIC following heating at 100 °C (E. coli ATCC25922; [9]) [µM],MIC after Papain (E. coli ATCC25922; [10]) [µM],MIC after Pepsin (E. coli ATCC25922; [11]) [µM],MIC after Protease K (E. coli ATCC25922; [12]) [µM],"MIC after Trypsin (E. coli ATCC25922; E. coli ATCC25922, 1 h, 37 °C) [µM]",MIC (S. aureus ATCC 25923; [13]) [µM],"MIC [2, 14] [µM]",MIC [5] [µM],further results
KKRRWQWRRKK-NH2 [KK-KK],128,>128,16,8,16,64,8,16,8,32,32,32,>128,>128,>128,>128,>128,128,>128,128,"MIC (E. coli UB 1005; UB 1005, 18 h): 32 µM; MIC [3, 15]: >128 µM; MIC [4, 16]: >128 µM; MIC (E. coli ATCC 25922; ATCC25922, 18 h): 32 µM"
FPRRWQWRRPF-NH2 [FP-PF],–,–,8,4,8,8,8,64,8,4,4,4,–,–,–,–,128,–,–,128,"MIC [1]: 16 µM; MIC (S. aureus ATCC 29213; ATCC 29213, 18 h): 32 µM; MIC after Papain (E. coli ATCC25922; ATCC25922, 1 h): 8 µM; MIC after Pepsin (E. coli ATCC25922; ATCC25922, 1 h): 16 µM; MIC after Protease K (E. coli ATCC25922; ATCC25922, 1 h): 4 µM; MIC following heating at 100 °C (E. coli ATCC25922; ATCC25922, 1 h): 8 µM; MIC (S. aureus ATCC 25923; ATCC 25923, 18 h): 32 µM; MIC ([2]; ATCC 12228, 18 h): 64 µM; MIC (E. coli UB 1005; UB 1005, 18 h): 8 µM; MIC ([3]; ATCC 14028, 18 h): 32 µM; MIC ([4]; murium C 7731, 18 h): 64 µM; MIC (E. coli ATCC 25922; ATCC25922, 18 h): 4 µM"
"KCRRWQWRMKK-NH2 [LFcinB18–28, reference compound]",>128,>128,–,–,–,–,–,–,–,–,–,–,16,>128,>128,>128,>128,128,>128,>128,"MIC in the presence of NH4+ (E. coli ATCC25922; E. coli ATCC25922, 6 μM NH4Cl): 8 µM; MIC in the presence of Mg2+ (E. coli ATCC25922; E. coli ATCC25922, 1 mM MgCl2): 16 µM; MIC in the presence of Ca2+ (E. coli ATCC25922; E. coli ATCC25922, 2.5 mM CaCl2): 16 µM; MIC in the presence of Fe3+ (E. coli ATCC25922; E. coli ATCC25922, 4 mM FeCl3): 4 µM; MIC in the presence of K+ (E. coli ATCC25922; E. coli ATCC25922, 4.5 mM KCl): 16 µM; MIC in the presence of Zn2+ (E. coli ATCC25922; E. coli ATCC25922, 8 mM ZnCl3): 8 µM; MIC in the presence of Na+ (E. coli ATCC25922; E. coli ATCC25922, 150 mM NaCl): 16 µM; MIC, Control (enzymatic stability) (E. coli ATCC25922; [17]): 16 µM; MIC, Control (thermal stability) (E. coli ATCC25922; [17]): 16 µM; MIC, Control (salt stability) (E. coli ATCC25922; E. coli ATCC25922, untreated peptides, no added salt): 16 µM; MHC (minimum hemolytic concentration) [6]: >256 µM; MIC (E. coli UB 1005; E. coli UB 1005, MHB, 37 °C, 18 h, peptides 0-256 μM, triplicate samples): 128 µM; MIC [3, 15]: >128 µM; MIC [4, 16]: >128 µM; MIC (E. coli ATCC 25922; E. coli ATCC 25922, MHB, 37 °C, 18 h, peptides 0-256 μM, triplicate samples): 16 µM"
